Assay results: article PMC4297288, “Metal-assisted synthesis of unsymmetrical magnolol and honokiol analogs and their biological assessment as GABAA receptor ligands” (Bioorganic & Medicinal Chemistry Letters, 2015)
Where two headings read alike, the source gives them in different places.

What was measured:
Format in all cases: cell-based
[1] = target: T1, α1β2γ2 GABAA receptor (β2 subunit) (Rattus norvegicus, UniProt P63138); assay: two-electrode voltage clamp, % IGABA at […] compound, GABA EC0.[…]
T1 construct: gene Gabrb2; recombinant α1β2γ2 receptor expressed in Xenopus laevis oocytes; with GABAA α1 (Gabra1) and γ2 (Gabrg2) subunits
T1 sequence (P63138 26-474): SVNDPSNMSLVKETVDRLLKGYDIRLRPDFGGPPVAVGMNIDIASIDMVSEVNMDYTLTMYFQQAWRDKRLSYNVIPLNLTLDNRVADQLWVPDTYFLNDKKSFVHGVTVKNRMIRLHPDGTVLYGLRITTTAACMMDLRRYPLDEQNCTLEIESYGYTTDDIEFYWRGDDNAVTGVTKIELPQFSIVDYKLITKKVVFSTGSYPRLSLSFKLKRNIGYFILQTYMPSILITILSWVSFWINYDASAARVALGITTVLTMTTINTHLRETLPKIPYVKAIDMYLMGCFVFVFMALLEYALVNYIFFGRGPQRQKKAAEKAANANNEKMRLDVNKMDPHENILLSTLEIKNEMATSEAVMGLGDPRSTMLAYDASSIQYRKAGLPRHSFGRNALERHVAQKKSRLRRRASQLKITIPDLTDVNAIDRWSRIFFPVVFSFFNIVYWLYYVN
T1 sequence (P62813 28-455 partner): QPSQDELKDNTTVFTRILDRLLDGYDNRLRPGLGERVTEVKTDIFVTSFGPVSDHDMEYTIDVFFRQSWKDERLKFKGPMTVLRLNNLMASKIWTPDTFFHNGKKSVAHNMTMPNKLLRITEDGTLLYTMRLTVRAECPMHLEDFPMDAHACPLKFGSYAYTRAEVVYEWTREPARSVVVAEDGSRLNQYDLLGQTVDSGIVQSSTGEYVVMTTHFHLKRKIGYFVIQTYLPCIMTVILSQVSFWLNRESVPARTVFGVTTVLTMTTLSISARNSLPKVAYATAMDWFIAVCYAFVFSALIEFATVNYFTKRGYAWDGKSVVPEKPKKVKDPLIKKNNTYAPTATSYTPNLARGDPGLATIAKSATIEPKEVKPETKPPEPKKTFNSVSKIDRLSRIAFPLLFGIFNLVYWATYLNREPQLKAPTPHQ
T1 sequence (P18508 39-466 partner): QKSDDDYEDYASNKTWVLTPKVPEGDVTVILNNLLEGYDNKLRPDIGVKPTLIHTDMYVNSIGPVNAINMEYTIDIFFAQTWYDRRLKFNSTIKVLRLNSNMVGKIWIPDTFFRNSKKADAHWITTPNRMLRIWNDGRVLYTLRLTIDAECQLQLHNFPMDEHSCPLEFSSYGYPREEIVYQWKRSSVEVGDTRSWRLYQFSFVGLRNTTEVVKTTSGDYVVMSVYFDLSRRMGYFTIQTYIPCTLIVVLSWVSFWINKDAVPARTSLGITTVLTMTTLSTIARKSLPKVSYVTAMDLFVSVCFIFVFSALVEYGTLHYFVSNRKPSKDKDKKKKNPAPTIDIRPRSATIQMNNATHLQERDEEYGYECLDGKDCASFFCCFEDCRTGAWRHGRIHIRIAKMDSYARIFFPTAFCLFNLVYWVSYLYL

[2] = target: T1, α1β2γ2 GABAA receptor (β2 subunit); assay: two-electrode voltage clamp, potentiation of IGABA at GABA EC10-20
[3] = target: T2, α1β1γ2 GABAA receptor (β1 subunit) (Rattus norvegicus, UniProt P15431); assay: as above
T2 construct: gene Gabrb1; recombinant α1β1γ2 receptor expressed in Xenopus laevis oocytes; with GABAA α1 (Gabra1) and γ2 (Gabrg2) subunits
T2 sequence (P15431 26-474): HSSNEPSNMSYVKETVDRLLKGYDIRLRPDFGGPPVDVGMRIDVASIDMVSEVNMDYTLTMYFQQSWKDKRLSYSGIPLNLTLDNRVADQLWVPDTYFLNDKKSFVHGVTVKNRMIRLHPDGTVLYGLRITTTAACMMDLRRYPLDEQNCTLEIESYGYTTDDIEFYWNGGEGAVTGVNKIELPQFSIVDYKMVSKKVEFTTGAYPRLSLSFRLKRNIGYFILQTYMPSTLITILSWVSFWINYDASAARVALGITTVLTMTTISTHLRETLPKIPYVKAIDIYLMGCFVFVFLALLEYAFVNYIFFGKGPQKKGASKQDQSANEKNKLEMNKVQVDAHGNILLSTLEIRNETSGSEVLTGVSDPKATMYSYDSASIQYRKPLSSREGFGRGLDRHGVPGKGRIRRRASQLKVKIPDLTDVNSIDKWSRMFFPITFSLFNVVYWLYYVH
T2 sequence (P62813 28-455 partner): as the sequence (P62813 28-455 partner) above
T2 sequence (P18508 39-466 partner): as the sequence (P18508 39-466 partner) above

SMILES | activation at 3 µM [1] [%] | further results
C=CCc1ccc(O)c(-c2ccccc2C)c1 [8b] | 207 ± 33 | 
C=CCc1ccc(O)c(-c2cccc(OC)c2)c1 [8f] | 136 ± 32 | 
C=CCc1ccc(O)c(-c2ccc(OC)cc2)c1 [8g] |  | EC50 ([2]; read-out: EC50): ~7 µM; EC50 ([3]; read-out: EC50): 30 µM
C=CCc1ccc(O)c(-c2cccc(C(=O)OC)c2)c1 [8i] | 406 ± 70 | 
C=CCc1ccc(O)c(-c2cc(CC=C)ccc2O)c1 [compound 1, magnolol] | 338 ± 93 | 
C=CCc1ccc(O)c(-c2ccc(O)c(CC=C)c2)c1 [compound 2, honokiol] |  | EC50 [2]: 20 µM; EC50 [3]: 20 µM
